Measurements from patent publication US20150038545A1, “HYDROXYPHENYL PYRROLE COMPOUNDS CONTAINING AN HYDROXAMIC ACID AS HDAC INHIBITORS AND MEDICINAL APPLICATIONS THEREOF” (UNIVERSIDAD DEL PAÍS VASCO, priority 2011, published 2015).

What was measured:
SK-OV-3 = assay: Cancer cell growth inhibition (CellTiter-Glo), SK-OV-3; assay type: cell-based, Human; conditions: Homo sapiens; Ovarian Cancer, SK-OV-3, 72 h treatment
Experimental: (§1) Cell culture-based assays were used to evaluate the ability of compounds of the invention to inhibit cancer cell growth.
(§2) Cells were obtained from the American Type Culture Collection (ATCC). Cells were cultured at 37° C. with 5% CO2 in the appropriate growth medium (see table below), and harvested respectively during the logarithmic growth period and counted with hemocytometer. The cell viability was examined by trypan blue exclusion. Cell concentrations were adjusted to 5.56×10^4 cells/ml with respective medium.
(§3) Stock solutions of test compounds and positive drugs Doxorubicin (Zhejiang, Haizheng, China), Cisplatin (Nanjing Zhiyao, China) and Mitomycin (Zhejiang, Haizheng, China) were prepared in dimethyl sulphoxide (DMSO) or PBS at 20 mM.
(§4) In order to determine the IC50 for each compound, experiments were carried out in 96-well plates and the cell lines seeded at a density of 5,000 cells/well. […] All treatments were performed in triplicate. 10 μl of drug solution was added to each well and incubated for 72 hours. At the end of the incubation, 100 μl of the CellTiter-Glo Reagent were added to each well and the contents were mixed for 2 munites on an orbital shaker to induce cell lysis. The plate was incubated at room temperature for 10 minutes to stabilize luminiscent signal, and luminiscent was recorded. […] In order to calculate IC50 values, dose-responsive curves were fitted using nonlinear regression model with a sigmoidal dose response.

NCI-N87 = assay: Cancer cell growth inhibition (CellTiter-Glo), NCI-N87; assay type: cell-based, Human; conditions: Homo sapiens; Gastric Cancer, NCI-N87, 72 h treatment
Experimental: as §1, §2, §3, §4

HT-29 = assay: Cancer cell growth inhibition (CellTiter-Glo), HT-29; assay type: cell-based, Human; conditions: Homo sapiens; Colorectal Cancer, HT-29, 72 h treatment
Experimental: as §1, §2, §3, §4

SK-HEP-1 = assay: Cancer cell growth inhibition (CellTiter-Glo), SK-HEP-1; assay type: cell-based; conditions: Homo sapiens, SK-HEP1; Liver Cancer, SK-HEP-1, 72 h treatment
Experimental: as §1, §2, §3, §4

MCF-7 = assay: Cancer cell growth inhibition (CellTiter-Glo), MCF-7; assay type: cell-based, Human; conditions: Homo sapiens, MCF7; Breast Cancer, MCF-7, 72 h treatment
Experimental: as §1, §2, §3, §4

SMILES	IC50 (SK-OV-3)	IC50 (NCI-N87)	IC50 (HT-29)	IC50 (SK-HEP-1)	IC50 (MCF-7)
O=C(CCCCCNC(=O)c1[nH]c(-c2ccccc2)cc1-c1ccc(O)cc1)NO [Example 1, N-(6-(hydroxyamino)-6-oxohexyl)-3-(4-hydroxyphenyl)-5-phenyl-1H-pyrrole-2-carboxamide]	3.16 µM	1 µM	1.42 µM	4.03 µM	1.75 µM
O=C(CCCCCNC(=O)c1[nH]c(-c2ccc(O)cc2)cc1-c1ccccc1)NO [Example 2, N-(6-(hydroxyamino)-6-oxohexyl)-5-(4-hydroxyphenyl)-3-phenyl-1H-pyrrole-2-carboxamide]	6.88 µM	1.24 µM	4.04 µM	6.04 µM	10.9 µM
O=C(CCCCCNC(=O)c1[nH]c(-c2ccc(O)cc2)cc1-c1ccoc1)NO [Example 5, 3-(3-furyl)-N-(5-(hydroxycarbamoyl)pentyl)-5-(4-hydroxy-phenyl)-1H-pyrrole-2-carboxamide]	1.56 µM	0.16 µM	3.45 µM	1.84 µM	9.23 µM
O=C(CCCCCNC(=O)c1[nH]c(-c2ccc(O)cc2)cc1-c1ccsc1)NO [Example 6, N-(5-(hydroxycarbamoyl)pentyl)-5-(4-hydroxyphenyl)-3-(3-thienyl)-1H-pyrrole-2-carboxamide]	3.15 µM	0.48 µM	3.64 µM	3.13 µM	7.07 µM
